Reference: US20090215895A1, “Therapeutic and carrier molecules” (PEPLIN BIOLIPIDS PTY LTD, priority 2004, published 2009)
“Also recorded” adds a separate entry of the source.

Tests used:
neutrophil NADPH oxidase = experiment: Neutrophil respiratory burst (NADPH oxidase activation, chemiluminescence); type: cell-based, human; settings: human neutrophils, up to 30 μmol/l
Experimental: The structure of PT2 is shown in (c) above. In this screening assay, neutrophils were prepared from the blood of healthy volunteers. Freshly collected blood was layered onto a Hypaque-Ficoll medium of density 1.114 and centrifuged at 400 g for 30 mins at room temperature. After centrifugation, the leukocytes resolved into two distinct bands, with neutrophils being present in the second band (Ferrante and Thong, J. Immun. Methods 48:81-85, 1982).
Activation of the neutrophil NADPH oxidase was measured by lucigenin-dependent chemiluminescence following a 10 min incubation of PT2 (20 μM, final concentration) with 1×10^6 neutrophils from different donors (Power et al, J. Immunol. 159:2952-2959, 1997). Arachidonic acid (20:4, n-6) was used as a positive stimulator of the oxidase
Neutrophil respiratory burst was determined as previously described (Li et al, J. Clin. Invest. 97:1605-1609, 1996).

ICAM-1 = experiment: Adhesion molecule expression on HUVEC (ELISA); type: cell-based, human; settings: for Suppression of TNF-α-induced ICAM-1 expression on HUVEC: 60 min pre-treatment
Experimental: (§1) FIG. 13 is a representation showing effect of MP3 (β-oxa-23:4n-6) and 20:4n-6 on time-related changes in TNF-α-induced E-selectin, ICAM-1 and VCAM-1 expression on HUVEC. HUVEC were pre-treated with 20 μmol/l β-oxa-23:4n-6 (closed triangles), 20 μmol/l 20:4n-6 (open squares), or DPC (control) for 60 min and then further incubated with TNF-α (125 U/200 μl medium) for up to 24 hr. The expression of E-selectin, ICAM-1 and VCAM-1 adhesion molecules was determined by ELISA. The results are expressed as % of control and represent the mean±SEM of three separate experiments each performed in triplicate. * p<0.05, **p<0.01, ***p<0.001, for significant differences between pre-treatment with fatty acid and corresponding control at a particular time point (one-way analysis of variance followed by the Dunnett test for multiple comparisons). Inset: The effect of β-oxa-23:4n-6 on TNF-α-induced expression of E-selectin mRNA in HUVEC. HUVEC were pre-incubated with β-oxa-23:4n-6 (20 μmol/l) or DPC (control) in 1 ml of medium at 37° C. for 60 min. After the addition of TNF-α, the cells were further incubated at 37° C. for 2 hr. E-selectin mRNA expression was then determined and the results expressed as relative %. Results are the mean±SEM of three separate experiments each performed in quadruplicate. *p<0.0001, for significant differences between pre-treatment with β-oxa-23:4n-6, and control (two-tailed Student's t-test for unpaired data).
(§2) HUVEC were stimulated with TNF, bacterial lipopolysaccharide (LPS) or PMA for 24 hr. Expression of E-selectin, ICAM-1 and VCAM-1 was determined by an enzyme-linked immunosorbent assay (ELISA) or as mRNA using a slot blot technique (Huang et al 1997 supra).

VCAM-1 = experiment: Adhesion molecule expression on HUVEC (ELISA); type: cell-based, human; settings: for Suppression of TNF-α-induced VCAM-1 expression on HUVEC: 60 min pre-treatment
Experimental: as §1, §2

[1] = LPS-induced influx of neutrophils and mononuclear cells in the peritoneal cavity; type: in vivo, BALB/c mice; settings: 40 mg/kg intravenously, 6 hr before LPS
Experimental: FIG. 14 is a representation showing (A) effect of MP3 on in vivo inflammatory response measured as delayed type hypersensitivity (DTH) to sheep erythrocytes and LPS-induced influx of neutrophils and mononuclear cells in the peritoneal cavity in BALB/c mice. In the DTH experiments mice were injected with sheep erythrocytes subcutaneously, challenged with the antigen in the hind foot pad 6 days later and the amount of foot pad swelling measured 48 hr later. One hour prior to challenge mice were given 10 mg/kg body weight of β-oxa fatty acid in 7% w/v, DMSO as vehicle intraperitoneally. […] The data, expressed as % of control, are presented as mean±SEM of 10 and 5 mice for DTH and peritoneal inflammation, respectively. […] The data, expressed as % of control, are presented as mean±SEM of ten mice per group and is representative of two experimental runs. […]
Effect of MP3 (β-oxa-23:4n-6) on the in vivo inflammatory response was measured as a delayed type hypersensitivity (DTH) reaction and LPS-induced influx of neutrophils and mononuclear cells in the peritoneal cavity in BALB/c mice. For DTH experiments, mice were injected subcutaneously with 100 μl of 10% hematocrit sheep erythrocytes, challenged with the antigen (25 μl of 40%) in the hind foot pad 6 days later and the degree of foot pad swelling measured 48 hr later (Ferrante et al, Clin. & Exp. Immunol. 38:70-76, 1979). […]

ERK = experiment: TNF-stimulated MAP kinase activity in HUVEC; type: cell-based, human; settings: HUVEC pre-treated with the fatty acid
Experimental: (§3) ERK and p38 were precipitated with anti-ERK2 (C-14, sc-154) and anti-p38 (C-20, sc-535) antibody, respectively (Santa Cruz Biotech) and the activity determined using myelin basic protein as a substrate (Hii et al, 1995 supra, Hii et al, 1998 supra). JNK activity was determined in a solid phase assay using GST c-Jun (residues-1-79) as a substrate (Hii et al, 1995 supra, Hii et al, 1998 supra).

JNK = experiment: TNF-stimulated MAP kinase activity in HUVEC; type: cell-based, human; settings: HUVEC pre-treated with the fatty acid
Experimental: as §3

p38 = experiment: TNF-stimulated MAP kinase activity in HUVEC; type: cell-based, human; settings: HUVEC pre-treated with the fatty acid
Experimental: as §3

[2] = 20 μmol/l, listed as β-oxa-23:4n-6

Structure (SMILES): CCCCC/C=C\C/C=C\C/C=C\C/C=C\CCCCOCC(=O)O [MP3, β-oxa-23:4n-6]
- Stimulation of the neutrophil respiratory burst (chemiluminescence response) (neutrophil NADPH oxidase): relatively poor at stimulating this response; also recorded: failed to cause any significant respiratory burst
- Suppression of TNF-α-induced ICAM-1 expression on HUVEC (ICAM-1; 20 μmol/l): better than docosahexaenoic acid (22:6n-3) at suppressing
- Suppression of TNF-α-induced ICAM-1 expression on HUVEC (ICAM-1; [2]): inhibited the expression
- Time of cytokine treatment at maximum inhibition of ICAM-1 expression (ICAM-1; 20 μmol/l, TNF-α): 6 h
- Inhibition of LPS and PMA-induced up-regulation of ICAM-1 (ICAM-1; HUVEC): inhibited LPS and PMA-induced, up-regulation
- Suppression of TNF-α-induced VCAM-1 expression on HUVEC (VCAM-1; 20 μmol/l): better than docosahexaenoic acid (22:6n-3) at suppressing
- Suppression of TNF-α-induced VCAM-1 expression on HUVEC (VCAM-1; [2]): inhibited the expression
- Time of cytokine treatment at maximum inhibition of VCAM-1 expression (VCAM-1; 20 μmol/l, TNF-α): 12 h
- Inhibition of LPS and PMA-induced up-regulation of VCAM-1 (VCAM-1; HUVEC): inhibited LPS and PMA-induced, up-regulation
- LPS-induced mononuclear cell infiltrate (72 hr) [1]: inhibition of the mononuclear cell infiltrate after 72 hr
- LPS-induced neutrophil influx (24 hr) [1]: inhibited the neutrophil influx
- Effect on ability of TNF to stimulate ERK (ERK): did not affect
- Effect on ability of TNF to stimulate JNK (JNK): did not affect
- Effect on ability of TNF to stimulate p38 (p38): did not affect
